ChEMBL document CHEMBL5678818, “Discovery of potent SOS1 inhibitors that block RAS activation via disruption of the RAS-SOS1 interaction” (Proc Natl Acad Sci U S A, 2019)

Experiments:
[1] = target: RAC-gamma serine/threonine-protein kinase (Homo sapiens) (UniProt Q9Y243); assay: Inhibition of AKT3 (unknown origin) assessed as residual activity at 100 nM by KINOMEscan analysis relative to control
[2] = target: Dual specificity protein kinase CLK3 (Homo sapiens) (UniProt P49761); assay: Inhibition of CLK3 (unknown origin) assessed as residual activity at 100 nM by KINOMEscan analysis relative to control
[3] = target: T1, Serine/threonine-protein kinase 17B (Homo sapiens) (UniProt O94768); assay: Inhibition of DRAK2 (unknown origin) assessed as residual activity at 100 nM by KINOMEscan analysis relative to control
T1 sequence (whole entry): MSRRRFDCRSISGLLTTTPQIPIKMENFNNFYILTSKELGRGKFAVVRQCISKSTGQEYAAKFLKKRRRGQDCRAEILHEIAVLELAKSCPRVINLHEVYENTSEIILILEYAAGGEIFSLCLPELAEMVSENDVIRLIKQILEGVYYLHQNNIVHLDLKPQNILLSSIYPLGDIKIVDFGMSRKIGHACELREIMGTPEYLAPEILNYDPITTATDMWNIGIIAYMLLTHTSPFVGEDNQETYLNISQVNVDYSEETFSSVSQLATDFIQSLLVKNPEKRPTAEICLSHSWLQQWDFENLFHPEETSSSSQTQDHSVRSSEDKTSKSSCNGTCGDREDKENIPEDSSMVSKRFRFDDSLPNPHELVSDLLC

[4] = target: Vascular endothelial growth factor receptor 1 (Homo sapiens) (UniProt P17948); assay: Inhibition of FLT1 (unknown origin) assessed as residual activity at 100 nM by KINOMEscan analysis relative to control
[5] = target: Cyclin-dependent kinase 15 (Homo sapiens) (UniProt Q96Q40); assay: Inhibition of PFTAIRE2 (unknown origin) assessed as residual activity at 100 nM by KINOMEscan analysis relative to control
[6] = system: Phosphatidylinositol 4,5-bisphosphate 3-kinase catalytic subunit alpha isoform (Homo sapiens), P42336 [I800L]; assay: Inhibition of PIK3CA I800L mutant (unknown origin) assessed as residual activity at 100 nM by KINOMEscan analysis relative to control
[7] = target: cAMP-dependent protein kinase catalytic subunit alpha (Homo sapiens) (UniProt P17612); assay: Inhibition of PKAC-alpha (unknown origin) assessed as residual activity at 100 nM by KINOMEscan analysis relative to control
[8] = target: T2, Serine/threonine-protein kinase PLK4 (Homo sapiens) (UniProt O00444); assay: Inhibition of PLK4 (unknown origin) assessed as residual activity at 100 nM by KINOMEscan analysis relative to control
T2 sequence (whole entry): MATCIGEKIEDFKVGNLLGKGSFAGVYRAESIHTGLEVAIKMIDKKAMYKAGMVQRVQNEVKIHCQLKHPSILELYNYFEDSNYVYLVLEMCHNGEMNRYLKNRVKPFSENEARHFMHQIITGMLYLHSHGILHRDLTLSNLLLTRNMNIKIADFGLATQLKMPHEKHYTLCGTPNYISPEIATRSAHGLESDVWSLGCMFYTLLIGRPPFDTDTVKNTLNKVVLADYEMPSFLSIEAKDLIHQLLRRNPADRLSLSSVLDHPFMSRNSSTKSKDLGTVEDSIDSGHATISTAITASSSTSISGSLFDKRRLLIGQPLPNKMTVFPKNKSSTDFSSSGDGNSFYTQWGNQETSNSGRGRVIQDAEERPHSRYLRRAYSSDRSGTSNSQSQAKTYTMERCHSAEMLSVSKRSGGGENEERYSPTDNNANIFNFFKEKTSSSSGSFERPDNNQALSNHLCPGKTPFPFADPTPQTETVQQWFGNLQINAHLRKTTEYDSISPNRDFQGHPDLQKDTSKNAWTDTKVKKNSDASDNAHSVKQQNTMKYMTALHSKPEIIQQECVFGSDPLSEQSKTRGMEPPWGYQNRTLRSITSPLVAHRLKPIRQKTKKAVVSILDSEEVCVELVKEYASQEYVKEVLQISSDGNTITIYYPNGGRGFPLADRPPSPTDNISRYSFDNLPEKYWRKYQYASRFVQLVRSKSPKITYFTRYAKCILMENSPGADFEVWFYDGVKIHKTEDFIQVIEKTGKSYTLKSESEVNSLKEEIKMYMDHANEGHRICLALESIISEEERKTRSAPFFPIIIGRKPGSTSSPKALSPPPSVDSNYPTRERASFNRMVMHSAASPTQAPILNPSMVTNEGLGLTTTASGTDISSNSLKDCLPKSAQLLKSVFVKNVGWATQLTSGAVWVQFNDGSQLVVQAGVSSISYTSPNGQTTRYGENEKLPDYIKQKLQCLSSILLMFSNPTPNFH

[9] = target: T3, Protein kinase C iota type (Homo sapiens) (UniProt P41743); assay: Inhibition of PRKCI (unknown origin) assessed as residual activity at 100 nM by KINOMEscan analysis relative to control
T3 sequence (whole entry): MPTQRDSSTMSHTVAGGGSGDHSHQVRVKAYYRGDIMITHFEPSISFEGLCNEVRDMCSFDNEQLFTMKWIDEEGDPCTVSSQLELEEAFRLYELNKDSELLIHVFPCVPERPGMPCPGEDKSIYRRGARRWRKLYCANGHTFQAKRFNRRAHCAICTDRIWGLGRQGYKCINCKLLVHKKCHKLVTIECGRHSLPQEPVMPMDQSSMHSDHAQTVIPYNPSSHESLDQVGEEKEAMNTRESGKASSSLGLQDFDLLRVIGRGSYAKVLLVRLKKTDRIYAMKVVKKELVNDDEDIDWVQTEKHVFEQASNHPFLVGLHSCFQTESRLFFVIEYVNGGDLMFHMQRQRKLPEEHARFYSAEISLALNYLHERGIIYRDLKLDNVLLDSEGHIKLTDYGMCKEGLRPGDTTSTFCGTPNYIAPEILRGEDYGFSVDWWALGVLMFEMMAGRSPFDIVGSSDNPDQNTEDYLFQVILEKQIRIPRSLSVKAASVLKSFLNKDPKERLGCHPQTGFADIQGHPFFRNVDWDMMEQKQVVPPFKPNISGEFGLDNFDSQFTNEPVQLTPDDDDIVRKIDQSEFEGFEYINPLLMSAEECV

[10] = target: Non-receptor tyrosine-protein kinase TYK2 (Homo sapiens) (UniProt P29597); assay: Inhibition of TYK2 JH2 pseudokinase domain (unknown origin) assessed as residual activity at 100 nM by KINOMEscan analysis relative to control
[11] = target: Tyrosine-protein kinase Yes (Homo sapiens) (UniProt P07947); assay: Inhibition of YES (unknown origin) assessed as residual activity at 100 nM by KINOMEscan analysis relative to control
Tyrosine-protein kinase Yes (Homo sapiens), sequence (P07947 2-543 limits assumed): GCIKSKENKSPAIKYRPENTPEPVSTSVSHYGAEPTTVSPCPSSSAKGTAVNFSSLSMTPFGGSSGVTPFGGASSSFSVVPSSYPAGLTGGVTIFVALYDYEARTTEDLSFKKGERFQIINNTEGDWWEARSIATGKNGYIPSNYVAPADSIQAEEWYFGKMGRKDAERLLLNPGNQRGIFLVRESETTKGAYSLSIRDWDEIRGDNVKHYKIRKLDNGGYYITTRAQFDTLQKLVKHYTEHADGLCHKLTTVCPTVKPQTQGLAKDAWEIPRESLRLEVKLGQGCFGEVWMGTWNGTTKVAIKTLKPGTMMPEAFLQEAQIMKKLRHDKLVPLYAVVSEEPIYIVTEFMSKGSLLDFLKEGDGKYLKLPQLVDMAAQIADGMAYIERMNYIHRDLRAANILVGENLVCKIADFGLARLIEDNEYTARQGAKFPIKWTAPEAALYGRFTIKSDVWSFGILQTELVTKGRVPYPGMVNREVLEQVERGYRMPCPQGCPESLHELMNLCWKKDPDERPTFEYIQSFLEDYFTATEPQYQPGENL

Vascular endothelial growth factor receptor 1 (Homo sapiens), sequence (P17948 whole entry): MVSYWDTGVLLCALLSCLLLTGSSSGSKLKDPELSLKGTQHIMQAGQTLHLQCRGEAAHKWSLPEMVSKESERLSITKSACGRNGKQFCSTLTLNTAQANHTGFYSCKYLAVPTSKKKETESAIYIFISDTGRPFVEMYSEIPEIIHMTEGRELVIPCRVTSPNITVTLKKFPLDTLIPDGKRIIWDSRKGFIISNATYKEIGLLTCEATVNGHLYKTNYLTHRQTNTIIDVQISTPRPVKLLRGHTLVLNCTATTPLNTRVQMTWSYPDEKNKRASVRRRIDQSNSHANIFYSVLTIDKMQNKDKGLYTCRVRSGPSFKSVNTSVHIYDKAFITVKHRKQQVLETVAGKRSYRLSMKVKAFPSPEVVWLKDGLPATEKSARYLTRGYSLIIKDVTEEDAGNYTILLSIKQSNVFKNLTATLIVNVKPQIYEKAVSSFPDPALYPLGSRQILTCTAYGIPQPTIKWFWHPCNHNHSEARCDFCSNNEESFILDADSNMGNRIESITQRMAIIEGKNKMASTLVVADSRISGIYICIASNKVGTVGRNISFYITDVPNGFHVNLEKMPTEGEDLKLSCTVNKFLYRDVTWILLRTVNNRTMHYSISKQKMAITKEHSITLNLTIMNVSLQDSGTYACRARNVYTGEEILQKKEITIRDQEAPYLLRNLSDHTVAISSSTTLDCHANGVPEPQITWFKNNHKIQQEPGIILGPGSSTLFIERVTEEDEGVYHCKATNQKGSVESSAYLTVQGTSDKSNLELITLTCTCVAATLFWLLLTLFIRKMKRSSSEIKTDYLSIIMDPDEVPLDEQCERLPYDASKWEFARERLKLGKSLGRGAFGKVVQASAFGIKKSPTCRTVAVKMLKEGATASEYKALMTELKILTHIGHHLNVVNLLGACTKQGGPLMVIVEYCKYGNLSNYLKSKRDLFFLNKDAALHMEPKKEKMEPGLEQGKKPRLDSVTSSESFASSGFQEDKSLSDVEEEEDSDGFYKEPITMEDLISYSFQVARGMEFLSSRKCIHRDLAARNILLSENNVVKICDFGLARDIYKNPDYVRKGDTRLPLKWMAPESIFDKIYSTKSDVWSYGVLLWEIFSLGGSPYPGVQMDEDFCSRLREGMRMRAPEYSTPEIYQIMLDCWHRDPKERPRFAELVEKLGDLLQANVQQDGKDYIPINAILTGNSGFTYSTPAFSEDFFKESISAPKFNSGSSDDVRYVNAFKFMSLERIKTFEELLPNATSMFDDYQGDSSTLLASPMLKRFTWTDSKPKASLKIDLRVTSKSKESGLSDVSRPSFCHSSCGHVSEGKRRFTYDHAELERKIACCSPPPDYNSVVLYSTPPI
RAC-gamma serine/threonine-protein kinase (Homo sapiens), sequence (Q9Y243 whole entry): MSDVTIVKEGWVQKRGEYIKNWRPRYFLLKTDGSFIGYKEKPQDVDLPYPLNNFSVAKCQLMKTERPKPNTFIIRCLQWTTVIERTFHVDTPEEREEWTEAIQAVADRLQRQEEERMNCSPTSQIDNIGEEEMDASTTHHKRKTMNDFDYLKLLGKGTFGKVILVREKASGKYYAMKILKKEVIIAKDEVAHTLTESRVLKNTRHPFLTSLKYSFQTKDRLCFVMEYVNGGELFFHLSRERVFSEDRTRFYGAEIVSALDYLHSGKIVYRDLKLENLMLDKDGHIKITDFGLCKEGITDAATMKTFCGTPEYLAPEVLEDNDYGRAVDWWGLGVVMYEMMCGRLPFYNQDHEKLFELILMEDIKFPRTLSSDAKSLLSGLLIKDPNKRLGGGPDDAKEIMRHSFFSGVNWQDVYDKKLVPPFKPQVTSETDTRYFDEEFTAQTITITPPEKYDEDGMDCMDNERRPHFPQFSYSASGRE
Phosphatidylinositol 4,5-bisphosphate 3-kinase catalytic subunit alpha isoform (Homo sapiens), P42336 [I800L], sequence (P42336 whole entry I800L, canonical isoform): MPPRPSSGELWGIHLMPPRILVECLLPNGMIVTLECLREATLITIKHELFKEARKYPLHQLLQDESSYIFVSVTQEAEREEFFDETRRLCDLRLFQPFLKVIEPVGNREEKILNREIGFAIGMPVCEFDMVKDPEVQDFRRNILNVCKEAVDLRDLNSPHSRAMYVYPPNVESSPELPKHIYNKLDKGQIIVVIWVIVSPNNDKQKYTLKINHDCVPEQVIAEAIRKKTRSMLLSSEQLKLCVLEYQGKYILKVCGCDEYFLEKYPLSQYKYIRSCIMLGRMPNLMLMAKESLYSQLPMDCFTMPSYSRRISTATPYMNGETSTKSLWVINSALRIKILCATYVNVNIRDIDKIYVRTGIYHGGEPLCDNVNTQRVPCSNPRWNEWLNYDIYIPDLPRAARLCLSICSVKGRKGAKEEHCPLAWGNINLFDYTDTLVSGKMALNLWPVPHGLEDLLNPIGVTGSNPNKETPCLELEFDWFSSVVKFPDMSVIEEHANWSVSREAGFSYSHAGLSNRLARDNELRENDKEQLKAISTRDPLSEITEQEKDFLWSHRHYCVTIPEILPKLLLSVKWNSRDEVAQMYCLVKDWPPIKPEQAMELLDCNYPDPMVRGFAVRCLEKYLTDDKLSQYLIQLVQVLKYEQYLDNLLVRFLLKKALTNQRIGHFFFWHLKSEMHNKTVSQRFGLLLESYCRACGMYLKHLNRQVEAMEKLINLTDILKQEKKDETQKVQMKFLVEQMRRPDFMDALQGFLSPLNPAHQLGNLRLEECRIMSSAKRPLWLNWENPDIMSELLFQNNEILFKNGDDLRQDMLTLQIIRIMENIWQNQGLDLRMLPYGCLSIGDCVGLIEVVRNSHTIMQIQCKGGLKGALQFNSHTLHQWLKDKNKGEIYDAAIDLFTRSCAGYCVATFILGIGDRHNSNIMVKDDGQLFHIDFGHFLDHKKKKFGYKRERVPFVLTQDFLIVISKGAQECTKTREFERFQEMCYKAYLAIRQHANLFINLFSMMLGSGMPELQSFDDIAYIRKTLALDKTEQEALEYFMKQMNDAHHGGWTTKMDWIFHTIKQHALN
Cyclin-dependent kinase 15 (Homo sapiens), sequence (Q96Q40 whole entry, canonical isoform): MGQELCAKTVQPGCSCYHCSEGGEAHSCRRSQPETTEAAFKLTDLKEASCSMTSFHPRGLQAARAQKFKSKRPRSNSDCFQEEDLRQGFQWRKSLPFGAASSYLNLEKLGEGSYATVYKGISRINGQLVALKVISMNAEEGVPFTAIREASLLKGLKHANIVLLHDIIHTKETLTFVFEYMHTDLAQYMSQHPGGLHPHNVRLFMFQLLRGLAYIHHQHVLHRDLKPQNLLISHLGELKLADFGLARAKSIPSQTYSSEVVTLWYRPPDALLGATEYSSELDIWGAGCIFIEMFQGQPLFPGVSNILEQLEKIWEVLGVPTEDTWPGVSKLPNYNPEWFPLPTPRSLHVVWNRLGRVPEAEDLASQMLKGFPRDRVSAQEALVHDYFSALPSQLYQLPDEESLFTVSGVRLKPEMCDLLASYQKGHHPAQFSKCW
Non-receptor tyrosine-protein kinase TYK2 (Homo sapiens), sequence (P29597 whole entry, the tested form may be a part): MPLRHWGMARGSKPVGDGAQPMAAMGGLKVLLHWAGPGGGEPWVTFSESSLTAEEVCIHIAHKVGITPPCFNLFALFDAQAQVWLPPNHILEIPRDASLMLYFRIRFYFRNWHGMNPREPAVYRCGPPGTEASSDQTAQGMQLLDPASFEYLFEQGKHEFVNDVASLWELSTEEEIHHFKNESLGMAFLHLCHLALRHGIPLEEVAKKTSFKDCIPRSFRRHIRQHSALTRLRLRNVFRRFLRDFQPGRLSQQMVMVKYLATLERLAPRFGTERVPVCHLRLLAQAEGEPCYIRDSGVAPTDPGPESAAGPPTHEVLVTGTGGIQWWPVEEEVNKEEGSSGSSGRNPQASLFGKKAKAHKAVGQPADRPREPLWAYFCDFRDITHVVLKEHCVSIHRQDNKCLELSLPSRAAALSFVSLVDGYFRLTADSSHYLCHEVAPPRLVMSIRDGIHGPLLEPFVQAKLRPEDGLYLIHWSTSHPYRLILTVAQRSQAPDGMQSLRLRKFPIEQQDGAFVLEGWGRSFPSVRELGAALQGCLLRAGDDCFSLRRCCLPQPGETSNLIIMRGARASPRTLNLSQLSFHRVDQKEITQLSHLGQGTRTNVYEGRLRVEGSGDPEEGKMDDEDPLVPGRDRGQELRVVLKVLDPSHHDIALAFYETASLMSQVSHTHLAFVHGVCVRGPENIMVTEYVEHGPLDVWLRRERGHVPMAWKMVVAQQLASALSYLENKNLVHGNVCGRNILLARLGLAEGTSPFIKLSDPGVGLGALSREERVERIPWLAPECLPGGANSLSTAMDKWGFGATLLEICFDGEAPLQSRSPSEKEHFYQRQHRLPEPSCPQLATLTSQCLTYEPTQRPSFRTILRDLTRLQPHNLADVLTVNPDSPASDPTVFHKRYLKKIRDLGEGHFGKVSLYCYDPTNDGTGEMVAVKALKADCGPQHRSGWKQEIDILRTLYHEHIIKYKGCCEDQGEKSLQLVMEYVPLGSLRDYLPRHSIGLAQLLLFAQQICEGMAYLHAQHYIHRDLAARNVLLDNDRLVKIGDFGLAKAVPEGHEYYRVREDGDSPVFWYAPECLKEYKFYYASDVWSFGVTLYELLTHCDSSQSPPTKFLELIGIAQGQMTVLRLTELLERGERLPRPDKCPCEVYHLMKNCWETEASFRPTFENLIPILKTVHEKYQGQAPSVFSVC

For COc1cc2ncnc(N[C@H](C)c3cccc4ccccc34)c2cc1OC, the Activity [1] was 94%, the Activity [2] was 92% and the Activity [3] was 100%. The Activity [4] was 93%, the Activity [5] was 100% and the Activity [6] was 98%. It also gave an Activity [7] of 80%, an Activity [8] of 87% and an Activity [9] of 84%. It also gave an Activity [10] of 100% and an Activity [11] of 100%.
